The text below walks through data of patent publication US20080096922A1, “Novel Sulfonamide derivative” (Dainippon Sumitomo Pharma Co., Ltd., priority 2004, published 2008).

Each structure is given as a SMILES string. Where a name gives a salt, the structure may show the parent alone.

For the first assay, the system named is LDL receptor. Put plainly: Effects on an activity of a LDL receptor: uptake amount of DiI-LDL into HepG2 cell. The class given is cell-based, human. As to conditions: 1 μM, control group as 100%. As for the experimental part: The 1,1′-dioctadecyl-3,3,3′,3′-tetramethylindocarbocyanine perchlorate (DiI)-labeled LDL (DiI-LDL) was prepared as follows. That is, a DiI (Invitrogen Corp., U.S.A) was mixed with a human LDL (Chemicon International, Inc., U.S.A) and the mixture was incubated at 37° C. for 8 hours. […] After centrifugation, the DiI-labeled LDL fraction was separated and dialyzed with a physiological saline to prepare the above desired solution.
The effects on a LDL receptor activity were determined as the uptake amount of DiI-LDL into HepG2 cell. The cultured human hepatic cell line HepG2 cell was purchased from the Dainippon Pharmaceuticals Co. Ltd. (Osaka, Japan). The HepG2 cells were seeded in a 96 well plate and were incubated in the Dulbecco's modified Eagle/F-12 (DMEM/F-12) medium containing 10% fetal bovine serum and antibiotics in a CO2 incubator at 37° C. for two to three days. After washing the cells, a DMEM/F-12 medium containing 5-10% lipoprotein-deficient serum, the test substrate and the antibiotics were added thereto and the cells were incubated at 37° C. for 19 hours. After adding DiI-LDL, the cells were incubated in a CO2 incubator at 37° C. for another 5 hours. The uptake amount of non-specific DiI-LDL was measured by adding 30 to 50 folds amount of the non-labeled LDL. After washing the cells with Dulbecco's phosphate buffer (Sigma Corp., U.S.A.), the Dulbecco's phosphate buffer was added to each well and then the uptake amount of DiI-LDL into the cell line were measured as the value of fluorescence. After measuring the fluorescence, the Dulbecco's phosphate buffer was removed and thereto was added 1N sodium hydroxide solution to dissolve the cells and the amount of protein was measured by using a part of the resulting solution. The effect on a LDL receptor activity by each compound was determined by calculating the ratio of the amount of fluorescence/the amount of protein, and by subtracting the non-specific uptake amount therefrom and then calculating the control group as 100%.
Turning to `COc1cccc([C@]2(CNS(N)(=O)=O)CC[C@@H](NC(C)c3ccccc3)CC2)c1` (stereo partly drawn) [Example 20, N-({cis-1-(3-methoxyphenyl)-4-[(1-phenylethyl)amino]-cyclohexyl}methyl)sulfamide], the “Activity of (%) LDL receptor” value is on record as 128%.

Regarding `COc1cccc([C@]2(CNS(C)(=O)=O)CC[C@@H](NCc3ccc(-c4ccccc4)cc3)CC2)c1` [Example 24, N-{[cis-4-[(biphenyl-4-ylmethyl)amino]-1-(3-methoxyphenyl)cyclohexyl]methyl}methanesulfonamide], the “Activity of (%) LDL receptor” value was determined as 238%.

`COc1cccc([C@]2(CNS(N)(=O)=O)CC[C@@H](NCc3ccc(-c4ccccc4)cc3)CC2)c1.Cl` [Example 42, N-{[cis-4-[(biphenyl-4-ylmethyl)amino]-1-(3-methoxyphenyl)cyclohexyl]methyl}sulfamide hydrochloride]: the “Activity of (%) LDL receptor” value turned out to be 188%.

For the molecule `COc1cccc([C@]2(CNS(=O)(=O)N(C)C(=O)OC(C)(C)C)CC[C@@H](NCc3ccc(-c4ccccc4)cc3)CC2)c1` [Example 48, tert-butyl [({[cis-4-[(biphenyl-4-ylmethyl)amino]-1-(3-methoxyphenyl)cyclohexyl]methyl}amino)sulfonyl]methylcarbamate], the “Activity of (%) LDL receptor” value came to 145%.

The assay is the same for the next values; noted with them: 3 μM, control group as 100%.
Consider `COc1cccc([C@]2(CCNS(N)(=O)=O)CC[C@@H](NCc3ccc(-c4ccccc4)cc3)CC2)c1.Cl` [Example 22, N-{2-[trans-4-[(biphenyl-4-ylmethyl)amino]-1-(3-methoxyphenyl)cyclohexyl]ethyl}sulfamide hydrochloride], for which the “Activity of (%) LDL receptor” value was found to be 156%.

In the case of `COc1cccc([C@]2(CNS(=O)(=O)c3ccc(C)cc3)CC[C@@H](NCc3ccc(-c4ccccc4)cc3)CC2)c1` [Example 25, N-{[cis-4-[(biphenyl-4-ylmethyl)amino]-1-(3-methoxyphenyl)cyclohexyl]methyl}-4-methylbenzenesulfonamide], the “Activity of (%) LDL receptor” value is 153%.

`COc1cccc([C@]2(CNS(N)(=O)=O)CC[C@H](NCc3ccc(-c4ccccc4)cc3)CC2)c1` [Example 43, N-{[trans-4-[(biphenyl-4-ylmethyl)amino]-1-(3-methoxyphenyl)cyclohexyl]methyl}sulfamide hydrochloride]: the “Activity of (%) LDL receptor” value is on record as 146%.

Staying with this assay, now noted: 10 μM, control group as 100%.
Consider `COc1cccc(C2(C(=O)NS(=O)(=O)Oc3ccccc3C(C)(C)C)CCN(c3ccccc3OC)CC2)c1` [Example 1-8, 2-tert-butylphenyl {[1-(2-methoxyphenyl)-4-(3-methoxyphenyl)piperidin-4-yl]carbonyl}sulfamate], for which the “Activity of (%) LDL receptor” value was found to be 134%.

On to `COc1cccc(C2(C(=O)NS(=O)(=O)Oc3c(C(C)C)cccc3C(C)C)CCN(c3ncccn3)CC2)c1` [Example 1-17, 2,6-diisopropylphenyl {[4-(3-methoxyphenyl)-1-pyrimidin-2-ylpiperidin-4-yl]carbonyl}sulfamate], for which the “Activity of (%) LDL receptor” value was 120%.

On to `COc1cccc(C2(C(=O)NS(=O)(=O)Oc3c(C(C)C)cccc3C(C)C)CCN(c3nc4ccccc4s3)CC2)c1` [Example 1-19, 2,6-diisopropylphenyl {[1-(1,3-benzothiazol-2-yl)-4-(3-methoxyphenyl)piperidin-4-yl]carbonyl}sulfamate], for which the “Activity of (%) LDL receptor” value is listed as 132%.

With `COc1cccc(C2(C(=O)NP(=O)(Cc3ccccc3C)OC)CCN(c3ccccc3OC)CC2)c1` (stereo not drawn) [Example 2-1, methyl N-{[1-(2-methoxyphenyl)-4-(3-methoxyphenyl)piperidin-4-yl]carbonyl}-P-(2-methylbenzyl)-phosphonamidate], the “Activity of (%) LDL receptor” value turned out to be 140%.

With `COc1cccc(C2(C(=O)NS(=O)(=O)Oc3c(C(C)C)cccc3C(C)C)CCC(Nc3ccccc3OC)CC2)c1` (stereo not drawn) [Example 3-2, 2,6-diisopropylphenyl ({1-(3-methoxyphenyl)-4-[(2-methoxyphenyl)amino]cyclohexyl}carbonyl)sulfamate], the “Activity of (%) LDL receptor” value was 154%.

As for `COc1cccc([C@]2(CNS(C)(=O)=O)CC[C@@H](NC3CCNCC3)CC2)c1` [Example 10-3, N-{[cis-1-(3-methoxyphenyl)-4-(piperidin-4-ylamino)-cyclohexyl]methyl}methanesulfonamide dihydrochloride], the “Activity of (%) LDL receptor” value is given as 162%.

Turning to `COc1cccc([C@]2(CNS(C)(=O)=O)CC[C@@H](NCc3ccc(S(C)(=O)=O)cc3)CC2)c1` [Example 12-2, N-[(cis-1-(3-methoxyphenyl)-4-{[4-(methylsulfonyl)benzyl]-amino}cyclohexyl)methyl]methanesulfonamide], the “Activity of (%) LDL receptor” value was 142%.

`COc1cccc([C@]2(CNS(C)(=O)=O)CC[C@H](N3CCN(C)CC3)CC2)c1` [Example 13-1, N-{[trans-1-(3-methoxyphenyl)-4-(4-methylpiperazin-1-yl)cyclohexyl]methyl}methanesulfonamide]: the “Activity of (%) LDL receptor” value is recorded as 129%.

In the case of `COc1cccc([C@]2(CNS(C)(=O)=O)CC[C@@H](NC3CCN(Cc4ccc(NC(C)=O)cc4)CC3)CC2)c1` [Example 15-1, N-[4-({4-[(cis-4-(3-methoxyphenyl)-4-{[(methylsulfonyl)-amino]methyl}cyclohexyl)amino]piperidin-1-yl}methyl)phenyl]acetamide], the “Activity of (%) LDL receptor” value is recorded as 192%.

In the case of `COc1cccc([C@]2(CNS(C)(=O)=O)CC[C@@H](NC3CCN(Cc4ccc(S(C)(=O)=O)cc4)CC3)CC2)c1` [Example 15-2, N-[(cis-1-(3-methoxyphenyl)-4-{1-[4-(methylsulfonyl)-benzyl]piperidin-4-ylamino}cyclohexyl)methyl]methanesulfonamide], the “Activity of (%) LDL receptor” value was 223%.

Regarding `COc1cccc([C@]2(CNS(N)(=O)=O)CC[C@@H](NC3CCN(Cc4ccccc4)CC3)CC2)c1` [Example 18-1, N-{[cis-4-[(1-benzylpiperidin-4-yl)amino]-1-(3-methoxyphenyl)cyclohexyl]methyl}sulfamide], the “Activity of (%) LDL receptor” value amounted to 230%.

As for `COc1cccc([C@]2(CNS(N)(=O)=O)CC[C@@H](NCc3ccc(-n4ccnc4)cc3)CC2)c1` [Example 18-2, N-{[cis-4-{[4-(1H-imidazol-1-yl)benzyl]amino}-1-(3-methoxyphenyl)cyclohexyl]methyl}sulfamide], the “Activity of (%) LDL receptor” value was 161%.

As to `COc1cccc([C@]2(CNS(N)(=O)=O)CC[C@@H](NCc3ccc(-n4cncn4)cc3)CC2)c1` [Example 18-3, N-[(cis-1-(3-methoxyphenyl)-4-{[4-(1H-1,2,4-triazol-1-yl)-benzyl]amino}cyclohexyl)methyl]sulfamide], the “Activity of (%) LDL receptor” value is given as 154%.

As for `COc1cccc(C2(CNS(C)(=O)=O)CCN(c3ccccc3OC)CC2)c1` [Example 27-1, N-{[1-(2-methoxyphenyl)-4-(3-methoxyphenyl)piperidin-4-yl]methyl}methanesulfonamide], the “Activity of (%) LDL receptor” value is 108%.

For the molecule `COc1cccc(C2(C(=O)NS(N)(=O)=O)CCN(c3ncccn3)CC2)c1` [Example 28-1, N-(aminosulfonyl)-4-(3-methoxyphenyl)-1-pyrimidin-2-ylpiperidine-4-carboxamide], the “Activity of (%) LDL receptor” value was found to be 186%.

As for `COc1cccc(C2(C(=O)NS(=O)(=O)NC(C)c3ccccc3)CCN(c3ncccn3)CC2)c1` (stereo not drawn) [Example 28-6, 4-(3-methoxyphenyl)-N-{[(1-phenylethyl)amino]sulfonyl}-1-pyrimidin-2-ylpiperidine-4-carboxamide], the “Activity of (%) LDL receptor” value came out at 127%.

`COc1cccc(C2(NS(=O)(=O)NC(=O)c3ccc(Cl)cc3)CCN(c3ncccn3)CC2)c1` [Example 34, 4-chloro-N-({[4-(3-methoxyphenyl)-1-pyrimidin-2-yl-piperidin-4-yl]amino}sulfonyl)benzamide]: the “Activity of (%) LDL receptor” value came to 139%.

As for `COc1cccc(C2(CNS(=O)(=O)c3ccc(C)cc3)CCN(C(c3ccccc3)c3ccccc3)CC2)c1` [Example 36, N-{[1-(diphenylmethyl)-4-(3-methoxyphenyl)piperidin-4-yl]methyl}-4-methylbenzenesulfonamide], the “Activity of (%) LDL receptor” value was determined as 122%.

As to `COc1cccc([C@]2(CNS(N)(=O)=O)CC[C@@H](NCc3ccc(S(N)(=O)=O)cc3)CC2)c1.Cl` [Example 38, 4-({[cis-4-{[(aminosulfonyl)amino]methyl}-4-(3-methoxyphenyl)cyclohexyl]amino}methyl)benzenesulfonamide hydrochloride], the “Activity of (%) LDL receptor” value is given as 150%.

Turning to `COc1cccc([C@]2(CNS(=O)(=O)NC(=O)OC(C)(C)C)CC[C@@H](NCc3ccc(-c4ccccc4)cc3)CC2)c1` [Example 41, tert-butyl [({[cis-4-[(biphenyl-4-ylmethyl)amino]-1-(3-methoxyphenyl)cyclohexyl]methyl}amino)sulfonyl]carbamate], the “Activity of (%) LDL receptor” value stood at 173%.
